Laboratory results from article PMC5638327, “Comparison of bioavailability and antiplatelet action of ticagrelor in patients with ST-elevation myocardial infarction and non-ST-elevation myocardial infarction: A prospective, observational, single-centre study” (PLoS ONE, 2017).

Test: Adverse events during the observation period (12 hours after ticagrelor LD)
Format: in vivo, human (patients with myocardial infarction)
Excerpt: Between November 2015 and January 2017, a total of 73 consecutive AMI patients (49 STEMI and 24 NSTEMI) were enrolled. The recruitment continued until the minimum required number of patients were enrolled in the less numerous group (NSTEMI). There were no differences in the baseline characteristics between the two groups, except higher mean left ventricle ejection fraction seen in NSTEMI patients at discharge (Table 1). Of note, as expected numerically greater proportion of STEMI patients were treated with morphine, but this difference was statistically insignificant. Adverse events during the observation period (12 hours after ticagrelor LD) were sporadic and mild (STEMI vs. NSTEMI: Thrombolysis in Myocardial Infarction minimal bleeding 6.1% vs. 8.3%, p = 0.92; dyspnea 2.0% vs. 4.2%, p = 0.83; vomiting 4.1% vs. 4.2%, p = 0.56). […]
Ludwika Rydygiera w Bydgoszczy (study
PLATO trial, deﬁnite or probable stent thrombosis approval reference number: KB 617/2015). […]
Thrombolysis In Myocardial Infarction (TIMI) criteria, still being collected, currently no additional data are available besides given in dyspnoea adverse events according to criteria used in the submitted study protocol. […]
Postepy […]
trial is expected to be the ﬁrst study to elucidateKardiol Interwencyjnej 2015;11:259–80. whether STEMI is associated with poorer absorption and 8. Navarese EP, Buffon A, Kozinski M, et al. A critical overview on ticagrelor in acute coronary syndromes. QJM 2013;106:105–15. subsequently weaker antiplatelet action of ticagrelor in 9. Adamski P, Koziński M, Ostrowska M, et al. Overview of pleiotropic comparison with NSTEMI. effects of platelet P2Y12 receptor inhibitors. Thromb Haemost […]
1Department of Principles of Clinical Medicine, Collegium Medicum, Nicolaus Drug Metab Dispos 2010;38:1514–21.
Copernicus University, Bydgoszcz, Poland 11. Husted S, Emanuelsson H, Heptinstall S, et al. Pharmacodynamics, 2Department of Pharmacology and Therapy, Collegium Medicum, Nicolaus pharmacokinetics, and safety of the oral reversible P2Y12 antagonist AZD6140 with aspirin in patients with atherosclerosis: a double-blind
Copernicus University, Bydgoszcz, Poland comparison to clopidogrel with aspirin. Eur Heart J 3Department of Cardiology and Internal Medicine, Collegium Medicum, 2006;27:1038–47.
Nicolaus Copernicus University, Bydgoszcz, Poland 12. Varenhorst C, Eriksson N, Johansson Å, et al. Effect of genetic 4Department of Theoretical Foundations of Biomedical Science and Medical variations on ticagrelor plasma levels and clinical outcomes.
Informatics, Collegium Medicum, Nicolaus Copernicus University, Bydgoszcz, Eur Heart J 2015;36:1901–12.
Poland 13. Teng R, Mitchell P, Butler K. Effect of age and gender on 5Department of Laboratory Medicine, Collegium Medicum, Nicolaus pharmacokinetics and pharmacodynamics of a single ticagrelor dose in healthy individuals. Eur J Clin Pharmacol 2012;68:1175–82.
Copernicus University, Bydgoszcz, Poland 14. Teng R, Mitchell PD, Butler K. Lack of significant food effect on the 6Department of Medicinal Chemistry, Collegium Medicum, Nicolaus pharmacokinetics of ticagrelor in healthy volunteers. J Clin Pharm Copernicus University, Bydgoszcz, Poland Ther 2012;37:4648.– […]

Compound: CCCSc1nc(N[C@@H]2C[C@H]2c2ccc(F)c(F)c2)c2nnn([C@@H]3C[C@H](OCCO)[C@@H](O)[C@H]3O)c2n1 [ticagrelor]
- Thrombolysis in Myocardial Infarction minimal bleeding (NSTEMI patients): 8.3%
- dyspnea (NSTEMI patients): 4.2%
- vomiting (NSTEMI patients): 4.2%
- Thrombolysis in Myocardial Infarction minimal bleeding (STEMI patients): 6.1%
- dyspnea (STEMI patients): 2.0%
- vomiting (STEMI patients): 4.1%
